pKi: −log10 of the molar value. Read-outs that look alike come from different tables or passages of the source. No end group written: not given here.
Legend:
[1] = target: T1, DPP9 (Homo sapiens, UniProt Q86TI2); experiment: Inhibition of GP-AMC hydrolysis by purified recombinant DPP9 at a single peptide concentration; type: biochemical; settings: 25 nM DPP9, 0.2 mM GP-AMC
T1 construct: made in house; host or cells: Sf9 insect cells (baculovirus)
Protocol: Accordingly, the peptide is capable of inhibiting the activity of wild-type DPP9 (SEQ ID NO: 6) to a level of 35 to 5% of the activity of wild-type DPP9 (SEQ ID NO: 6) if not inhibited, as determined in an assay using 25 nM purified DPP9, 0.2 mM GP-AMC, and 14 μM of the peptide to be tested, in TB buffer (20 mM Hepes/KOH pH 7.3, 110 mM potassium acetate, 2 mM Mg acetate, 0.5 mM EGTA), supplemented with 0.2% Tween-20, 1 mM dithiothreitol. Release of AMC from GP-AMC is measured using the Appliskan microplate fluorimeter (Thermo Scientific) with 380 nm (excitation) and 480 nm (emission) filters and the Skanit software, and analysed using the Prism software.
(§1) Kinetics assays: Purified recombinant DPP9 (25 nM) was incubated with varying concentrations of GP-AMC, in TB supplemented with 0.2% Tween-20, 1 mM ditiothreitol. For inhibition assays, inhibitory peptides were added directly to the reaction mixture. For activation by SUMO 0.2 mg/ml BSA, was added to the buffer to prevent non specific binding. DPP9 were incubated with 2.5 μM of either SUMO1, SUMO1 E67A, SUMO2 for 2 hour on ice prior to the assay. Alternatively DPP9 was incubated with 1 μM of RanGAP or RanGAP modified with either SUMO1 or SUMO2 for 2 hours prior to the assay. Fluorescence was measured using the Appliskan microplate fluorimeter (Thermo Scientific) with 380 nm (excitation) and 480 nm (emission) filters and the Skanit software, and analysed using the Prism software. Each experiment was performed at least three times, in replicates of four.
To improve the inhibition of DPP9, the inventors tested several peptide libraries composed of truncated variants of the EIL peptide (>80% pure, ordered from Genescript). These peptides were incubated with recombinant DPP9 and analysed GP-AMC hydrolysis. AMC release was then compared to samples containing either DPP9 alone, or the EIL peptide.

[2] = target: DPPIV (Homo sapiens, UniProt P27487); experiment: GP-AMC hydrolysis by DPPIV in the presence of peptide; type: biochemical; settings: 25 nM DPPIV, 13 μM peptide
Protocol: Preferably, the peptide is capable of inhibiting the activity by wild-type DPP9 (SEQ ID NO: 6) to a level of 30 to 5%, 29 to 5%, 28 to 5%, 27 to 5%, 26 to 5%, 25 to 5%, 24 to 5%, 23 to 5%, 22 to 5%, 21 to 5%, 20 to 5%, 19 to 5%, 18 to 5%, 17 to 5%, 16 to 5%, 15 to 5%, 14 to 5%, 13 to 5%, 12 to 5%, 11 to 5%, 10 to 5%, 9 to 5%, 8 to 5%, such as 7.5 to 5% of the activity of wild-type DPP9 (SEQ ID NO: 6) if not inhibited. […] Release of AMC from GP-AMC is measured using the Appliskan microplate fluorimeter (Thermo Scientific) with 380 nm (excitation) and 480 nm (emission) filters and the Skanit software, and analysed using the Prism software.
(§2) A&B 25 nM purified recombinant (A) DPP9 or (B) DPP8 were incubated with varying concentrations of the EIL peptide (0, 3.3 μM and 6.6 μM) and tested for hydrolysis of GP-AMC (1000, 500, 250, 125, 0 μM). C. 25 nM DPPIV was tested for the hydrolysis of GP-AMC (500, 250, 125, 0 μM) in the presence of 0 or 13 μM EIL peptide. Fluorescence was measured using the Appliskan microplate fluorimeter (Thermo Scientific) with 380 nm (excitation) and 480 nm (emission) filters and the Skanit software, and analysed using the Prism software. Each experiment was performed at least three times, in replicates of four.

[3] = system: cytosolic prolyl peptidase activity (HeLa cytosolic fractions); experiment: GP-AMC hydrolysis in HeLa cytosolic fractions incubated with peptide; type: biochemical, human
Protocol: HeLa cytosolic fractions were incubated with 0, 27.7 or 55.6 μM peptide EIL, and immediately tested for hydrolysis of varying concentrations of A. GP-AMC or B. R-AMC. Fluorescence was measured using the Appliskan microplate fluorimeter (Thermo Scientific) with 380 nm (excitation) and 480 nm (emission) filters and the Skanit software, and analysed using the Prism software. Each experiment was performed at least three times, in replicates of four.
Since the EIL peptide can displace SUMO1 from a DPP9-SUMO1 or a DPP8-SUMO1 complex (FIG. 2D), the inventors tested whether the EIL peptide would inhibit the association-dependent activation of DPP8 and DPP9 by SUMO1 in cell extracts. For this the inventors incubated cytosolic extracts with the EIL peptide and tested for the hydrolysis of GP-AMC (FIG. 8A). […] For control, the inventors also measured the hydrolysis of R-AMC, which is not a substrate for DPP8 or DPP9 (FIG. 8B).

[4] = target: T2, DPP9-SUMO1 interaction (Homo sapiens, UniProt Q86TI2); experiment: Peptide competition of DPP9 binding to SUMO1-immobilized beads (pull down); settings: 500 ng recombinant DPP9, peptide 0.1 mg/ml
T2 construct: made in house; host or cells: DPP9: Sf9 insect cells
Protocol: Ovalbumin (Ov) coupled beads were used for control. Bound proteins were detected by western blotting using specific antibodies. B. Shown is a pull down assay as in A with recombinant DPP9, DPP8, Uba2 or GST-PIAS3. C. Recombinant DPP9 was incubated with 15 mer peptides of a peptide library covering SUMO1 amino acid sequence. The DPP9-peptide solutions were then incubated with SUMO1-immobilized beads. Following extensive washing steps, bound DPP9 was eluted with sample buffer and detected DPP9-specific antibodies. D. Recombinant DPP8 and DPP9 were incubated with SUMO1-immobilized beads. To elute bound proteins, beads were incubated with either SUMO1-peptide 5 (overlapping SIG) or with SUMO1-peptide 9. […] Interacting DPP9 was detected using a DPP9 specific antibody. […] Interacting proteins were eluted with sample buffer and detected using specific antibodies. […]
To study the preferential association of DPP8 and DPP9 with SUMO1 but not SUMO2, the inventors aimed to identify the surfaces on SUMO1 involved in these interactions. First the inventors analysed the interaction of DPP9 with SUMO1 mutants in residues which were previously shown via NMR and crystal structures to interact with SIM containing proteins (Song et al, 2004; Hecker et al, 2006; Reverter & Lima, 2005). […] SUMO1-peptides 5 or 9 were then added and the release of bound DPP8 or DPP9 from the SUMO beads was analysed by SDS-PAGE (FIG. 2D). […]

[5] = target: T1, DPP9; experiment: Kinetics assay, Ki for inhibition of DPP9 (GP-AMC hydrolysis); type: biochemical; settings: for Ki: 25 nM DPP9, 0, 5 or 20 μM peptide, GP-AMC 0-500 μM, read-out: Ki (μM) for inhibition of DPP9
Protocol: (§3) Enzyme kinetics and the Ki of DPP8 or DPP9 may be determined as follows: 25 nM purified recombinant enzyme (DPP9 or DPP8) are incubated with varying concentrations of GP-AMC ([…] GP-AMC), in TB buffer (20 mM Hepes/KOH pH 7.3, 110 mM potassium acetate, 2 mM Mg acetate, 0.5 mM EGTA), supplemented with 0.2% Tween-20, 1 mM dithiothreitol. Experiments are performed in triplicates. To measure Ki values, for each set of experiments, inhibitory peptides are added to DPP9 or DPP8. Peptide concentrations tested are in the range between 0.04 to 50 μM. Release of AMC from GP-AMC is measured using the Appliskan microplate fluorimeter (Thermo Scientific) with 380 nm (excitation) and 480 nm (emission) filters and the Skanit software, and analysed using the Prism software.
as §2, §1

[6] = target: T3, DPP8 (Homo sapiens, UniProt Q6V1X1); experiment: Kinetics assay, Ki for inhibition of DPP8 (GP-AMC hydrolysis); type: biochemical
T3 construct: made in house; host or cells: Sf9 insect cells (baculovirus)
Protocol: as §3, §2

[7] = 10 μM peptide, DPP9 alone = 100.3
[8] = 14 μM peptide, no peptide = 100

T1 sequence (Q86TI2 1-892 isoform Q86TI2-2): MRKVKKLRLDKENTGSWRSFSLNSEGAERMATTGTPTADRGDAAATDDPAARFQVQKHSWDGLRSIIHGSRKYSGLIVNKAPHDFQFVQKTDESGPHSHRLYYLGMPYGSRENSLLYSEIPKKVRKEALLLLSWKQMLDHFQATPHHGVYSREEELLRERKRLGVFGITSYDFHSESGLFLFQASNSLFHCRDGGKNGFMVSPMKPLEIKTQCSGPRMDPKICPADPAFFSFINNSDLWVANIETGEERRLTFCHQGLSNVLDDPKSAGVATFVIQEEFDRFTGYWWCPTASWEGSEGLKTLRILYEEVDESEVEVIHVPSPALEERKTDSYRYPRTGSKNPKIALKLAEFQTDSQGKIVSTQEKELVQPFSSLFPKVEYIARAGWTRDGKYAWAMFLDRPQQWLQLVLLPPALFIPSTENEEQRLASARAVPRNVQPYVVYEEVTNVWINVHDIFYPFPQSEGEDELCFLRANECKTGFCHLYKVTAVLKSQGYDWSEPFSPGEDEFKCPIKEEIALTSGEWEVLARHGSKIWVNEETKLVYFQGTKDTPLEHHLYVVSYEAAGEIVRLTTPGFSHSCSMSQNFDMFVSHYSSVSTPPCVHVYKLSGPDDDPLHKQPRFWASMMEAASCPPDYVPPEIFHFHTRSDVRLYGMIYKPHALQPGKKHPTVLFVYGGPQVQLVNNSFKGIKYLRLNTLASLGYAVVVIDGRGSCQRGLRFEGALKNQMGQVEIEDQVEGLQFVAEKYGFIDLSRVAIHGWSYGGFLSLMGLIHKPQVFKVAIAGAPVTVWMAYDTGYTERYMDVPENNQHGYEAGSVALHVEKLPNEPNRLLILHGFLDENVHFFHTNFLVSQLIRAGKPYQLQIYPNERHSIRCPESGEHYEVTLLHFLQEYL
T3 sequence (Q6V1X1 whole entry): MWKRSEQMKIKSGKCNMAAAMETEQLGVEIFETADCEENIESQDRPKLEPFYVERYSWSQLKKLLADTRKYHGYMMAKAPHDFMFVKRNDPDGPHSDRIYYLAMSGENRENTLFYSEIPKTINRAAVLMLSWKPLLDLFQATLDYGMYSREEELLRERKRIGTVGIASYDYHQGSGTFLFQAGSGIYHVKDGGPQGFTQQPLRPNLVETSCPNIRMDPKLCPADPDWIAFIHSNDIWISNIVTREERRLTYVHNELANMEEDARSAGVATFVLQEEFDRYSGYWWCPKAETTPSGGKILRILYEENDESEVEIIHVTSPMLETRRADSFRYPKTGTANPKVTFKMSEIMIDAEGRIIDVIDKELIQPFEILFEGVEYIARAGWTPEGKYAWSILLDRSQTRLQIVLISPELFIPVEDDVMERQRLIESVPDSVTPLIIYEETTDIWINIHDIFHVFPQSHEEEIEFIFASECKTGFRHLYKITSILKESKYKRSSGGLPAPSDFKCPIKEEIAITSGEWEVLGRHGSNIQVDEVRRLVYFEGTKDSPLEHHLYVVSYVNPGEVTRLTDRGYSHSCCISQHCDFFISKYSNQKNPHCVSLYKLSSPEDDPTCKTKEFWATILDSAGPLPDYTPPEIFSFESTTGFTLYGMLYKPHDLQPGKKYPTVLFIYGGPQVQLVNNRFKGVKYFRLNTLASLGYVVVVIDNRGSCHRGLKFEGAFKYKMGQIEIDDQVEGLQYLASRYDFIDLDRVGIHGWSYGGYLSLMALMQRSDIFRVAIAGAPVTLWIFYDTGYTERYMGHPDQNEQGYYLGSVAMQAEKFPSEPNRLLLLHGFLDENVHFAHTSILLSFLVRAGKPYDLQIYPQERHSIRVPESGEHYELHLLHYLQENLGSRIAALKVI
T2 sequence (Q86TI2 1-892 isoform Q86TI2-2): as the sequence (Q86TI2 1-892 isoform Q86TI2-2) above
DPPIV, sequence (P27487 whole entry): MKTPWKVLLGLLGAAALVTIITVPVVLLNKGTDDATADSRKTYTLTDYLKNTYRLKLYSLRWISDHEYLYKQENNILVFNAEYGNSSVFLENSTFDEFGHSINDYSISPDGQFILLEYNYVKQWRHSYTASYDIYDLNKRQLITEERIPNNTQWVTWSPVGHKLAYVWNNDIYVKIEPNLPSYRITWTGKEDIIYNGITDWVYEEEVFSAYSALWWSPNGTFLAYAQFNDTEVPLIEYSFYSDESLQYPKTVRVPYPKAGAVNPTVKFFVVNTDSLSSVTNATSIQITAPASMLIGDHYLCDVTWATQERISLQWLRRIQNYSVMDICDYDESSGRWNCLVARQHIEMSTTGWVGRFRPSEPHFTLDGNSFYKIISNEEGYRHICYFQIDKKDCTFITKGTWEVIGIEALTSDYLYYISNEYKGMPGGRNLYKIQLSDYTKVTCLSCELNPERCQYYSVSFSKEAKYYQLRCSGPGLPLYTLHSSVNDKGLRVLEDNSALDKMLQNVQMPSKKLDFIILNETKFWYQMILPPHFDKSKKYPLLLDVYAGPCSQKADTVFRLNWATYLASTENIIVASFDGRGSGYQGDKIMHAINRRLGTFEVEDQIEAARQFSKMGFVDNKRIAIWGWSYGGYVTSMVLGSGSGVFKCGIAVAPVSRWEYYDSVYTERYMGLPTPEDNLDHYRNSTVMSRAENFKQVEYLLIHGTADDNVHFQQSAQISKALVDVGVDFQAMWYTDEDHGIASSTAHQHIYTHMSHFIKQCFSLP

Row | Substance | % DPP9 activity (Mean) [1, 7] [%] | % DPP9 activity (Mean) [1, 8] [%] | also measured
1 | RRRRSLRFLFEG (RRRRSLRFLYAG; EIL variant peptide) | 92.2 |  | 
2 | H-SLRFLFEGQRIADNH |  | 27.45 | inhibition of DPPIV [2]: not inhibited; degradation of GP-AMC in cytosolic extracts ([3]; HeLa cytosolic fractions, 0, 27.7 or 55.6 μM peptide): strongly reduced; binding of DPP9 to the SUMO1 beads after pre-incubation with peptide [4]: strongly reduced
3 | Acet-SLRFLFEG | 90.74 |  | 
4 | FLFEGQRI (EIL peptide variant) |  | 48.41 | 
5 | SLRFLFEGQ (LRFLFEGQRIADN; EIL peptide variant) |  | 16.43 | 
6 | LFEGQRIADNH (EIL peptide variant) |  | 67.77 | 
7 | TLRFLFEG (SLRFLFEG; EIL variant peptide) | 29.2 |  | 
8 | AAASLRFLYEG (SLRFLYEGAAA; EIL variant peptide) | 91.15 |  | 
9 | LFEGQR (FLIEGQRI; EIL peptide variant) |  | 51 | 
10 | H-SLRFLFAGQRIADNH |  | 5.093 | Ki [5]: 1.43 µM
11 | FEGQRIADNH (SLRFLFEGQRIAD; EIL peptide variant) |  | 97.12 | 
12 | SLRFLFEGQR (EIL peptide variant) |  | 24.27 | 
13 | SLRFLFEAQRIADNH (LRFLFEGQRIADNH; EIL peptide variant) |  | 19.46 | 
14 | H-SLRFLFEG | 24.08 |  | Ki [5]: 2 µM
15 | SLRFLFEGQRIADNH |  |  | Ki [5]: 7.32 µM; pKi ([5]; read-out: Ki for DPP9): 5.13; pKi [6]: 5.08; stability of the peptide in cytosolic extracts ([3]; HeLa cytosolic extracts): stable in cytosolic extracts
16 | H-SLRFLYEGQRIADNH |  | 13.06 | Ki [5]: 2.56 µM

— patent US9593148B2, “DPP8 and DPP9 peptide inhibitors” (GEORG-AUGUST-UNIVERSITAT GOTTINGEN STIFTUNG OFFENTLICHEN …, priority 2012, dated 2017)
